Reference: patent US11578130B2, “Regulatable chimeric antigen receptor” (Novartis AG, priority 2013, dated 2023)

Key:
[1] = test system: Jurkat cells with NFAT-LUC reporter (JNL); assay: Activation assay of redirected inhibitory RCAR (PD1 RCAR, FRB-FKBP switch) on PDL1-Fc; type: cell-based
Description: Jurkat cells with NFAT-LUC reporter (JNL) were grown to the density of 0.5×10^6/ml in Jurkat cell growth media with puromycin at 0.5 μg/ml. For each transfection 3×10^6 cells were spin down at 100 g for 10 minutes. Four μg DNA per construct were used per transfection. Amaxa Nucleofector solution V and supplement I was mixed and 100 μl was added into the tube with DNA construct. The mixture was then added to the cells and transferred to the electroporation cuvette. Electroporation was done under setting X-001 using Amaxa Nucleofector II Device. 0.5 ml of growth media was added immediately after electroporation and the mixture were transferred into 2 ml growth media in one well of the 6-well plate. After two hours, the rapalogue compound at various concentrations was added to cells. The cells were applied to tissue culture plate wells that were coated by the target. Tissue culture plate was coated with 5 μg/ml of PDL1-Fc or IgG1-Fc or any target for 2 hrs at 37° C., then blocked with the blocking buffer (DPBS with 5% serum) for 30 minutes. The transfected cells were added to the target plate with 100 μl per well and incubated further for 16 hrs. Luciferase One Glo reagent 100 μl was added per well. The samples were incubated for 5 min at 37° C. and then luminescence is measured using Envision plate reader. […]

mTOR = mTOR (Homo sapiens, UniProt P42345); details: low concentration; cited from earlier work
PI3K/mTOR = details: relatively higher concentrations; cited from earlier work
JNL cells = assay: Single vector CD19 RCAR constructs in JNL cells, NFAT reporter activation by dimerization molecule; type: cell-based; details: nM to sub-nM doses
Excerpt: The constructs and viral particles were made and tested essentially as described in Example 11. Viral particles were introduced into JNL cells and evaluated for activity essentially as described in Example 1 except that the target was CD19 (as opposed to EGFRviii).
Construct 143775 was introduced into cells and the affect of dimerization molecule concentration on activation evaluated essentially as described in Example 14.

[2] = target: biotinylated FKBP, FLAG FRB protein and everolimus; assay: AlphaLISA direct binding assay, FLAG FRB proteins with biotinylated FKBP and titrated everolimus; details: everolimus serial diluted from 600 nM; 30 nM biotinylated FKBP and each FLAG FRB protein
Description: FRB mutations were also ranked in an alternative assay format. Briefly, FRB proteins incorporating single and double mutations (SEQ ID NO: 319-323) were produced as FLAG tagged constructs in E. coli as described previously. 30 nM (final) of biotinylated FKBP (SEQ ID NO: 324) and each FLAG FRB protein were combined in the presence of everolimus serial diluted 1:3 from a starting final concentration of 600 nM into a 96 well ½ surface flat-bottom plate (PerkinElmer) and incubated for one hour at room temperature. All dilutions were made in 1× AlphaLISA Immunoassay buffer (PerkinElmer). Anti-Flag acceptor beads (PerkinElmer) were added at 10ug/ml final concentration and incubated for one hour at room temperature. Streptavidin donor beads (PerkinElmer), were then added at a final concentration of 40ug/ml and the plate was protected from light and incubated for 30 minutes at room temperature. The plate was then read on the PerkinElmer EnVision Multiplate reader equipped with the Alpha Module using excitation of 680 nm and a 570 nm Emission filter.

[3] = test system: Jurkat cells with NFAT-LUC reporter (JNL); assay: NFAT activation assay, 9E10 anti-myc scFv RCAR with c-myc peptide multimers; type: cell-based; details: myc tags at 100 nM, 18 hr; compared with lower multimers
Description: Jurkat cells with NFAT-LUC reporter (JNL) were grown to the density of 0.5×10^6/ml in Jurkat cell growth media with puromycin at 0.5 μg/ml. For each transfection 2.5×10^6 cells were spin down at 100 g for 10 minutes. Two μg of DNA per construct were used per transfection. Amaxa Nucleofector solution V and supplement I was mixed and 100 μl was added into the tube with DNA construct. The mixture was then added to the cells and transferred to the electroporation cuvette. Electroporation was done under setting X-001 using Amaxa Nucleofector II Device. 0.5 ml of growth media was added immediately after electroporation and the mixture were transferred into 2 ml growth media in one well of the 6-well plate and incubated for two hours. For myc tags in solution, the cells were distributed into 96-wells, monomer, dimer, trimer or tetramer myc tags or IgG1 Fc were applied at 100 nM. The cells were incubated for 18 hr. Alternatively, tissue culture plate was coated with 100 nM of various myc tags or IgG1 Fc for two hours, blocked with the blocking buffer (DPBS with 5% serum) for 1 hour. The transfected cells were added to the target plate with 100 μl per well and incubated for 18 hrs. Luciferase One Glo reagent 100 μl was added per well. The samples were incubated for 5 min at 37° C. and then luminescence is measured using Envision plate reader.

CO[C@H]1[C@@H](O)[C@H](C)C[C@H](C)/C=C/C=C/C=C(\C)[C@@H](c2c[nH]c3c(C)cccc23)C[C@@H]2CC[C@@H](C)[C@@](O)(O2)C(=O)C(=O)N2CCCC[C@H]2C(=O)O[C@H]([C@H](C)C[C@@H]2CC[C@@H](O)[C@H](OC)C2)C[C@H](O)[C@H](C)/C=C(\C)[C@H]1O [AP21967]
induction of NFAT signaling by PDL-1 target ([1]; PD1 RCAR (PD1-ECD-TM-FRB and FKBP-4 1BB-CD3 zeta), 500 nM AP21967): significant induction of signaling
potency in inducing dimerization of the heterodimerization switch, activation of NFAT signaling ([1]; PD1 RCAR, varying concentrations of AP21967, dose response): potent even at sub nM concentration

Cn1c(=O)n(-c2ccc(C(C)(C)C#N)cc2)c2c3cc(-c4cnc5ccccc5c4)ccc3ncc21 [BEZ235, 2-methyl-2-[4-(3-methyl-2-oxo-8-quinolin-3-yl-2,3-dihydro-imidazo[4,5-c]quinolin-1-yl)-phenyl]-propionitrile]
concentration at which mTOR inhibition predominates (mTOR): less than 100 nmol/L
concentration of dual PI3K/mTOR inhibition (PI3K/mTOR): approximately 500 nmol/L

CO[C@H]1C[C@@H]2CC[C@@H](C)[C@@](O)(O2)C(=O)C(=O)N2CCCC[C@H]2C(=O)O[C@H]([C@H](C)C[C@@H]2CC[C@@H](O)[C@H](OC)C2)CC(=O)[C@H](C)/C=C(\C)[C@@H](O)[C@@H](OC)C(=O)[C@H](C)C[C@H](C)/C=C/C=C/C=C/1C [rapamycin]
activation of RCAR (Construct 143775) over dimerization molecule concentration (JNL cells): effective at a broad range of concentrations

Wild type FRB: His-FRB SEQ ID NO: 312 in competition assay; His-FLAG-FRB SEQ ID NO: 318 in direct binding assay
EC50 [2]: 3.9 nM

T2098L: FRB point mutant; SEQ ID NO: 315 (competition assay), SEQ ID NO: 321 (direct binding assay)
EC50 [2]: 1.44 nM

E2032L: FRB point mutant; SEQ ID NO: 314 (competition assay), SEQ ID NO: 320 (direct binding assay)
EC50 [2]: 2.15 nM

E2032I: FRB point mutant; SEQ ID NO: 313 (competition assay), SEQ ID NO: 319 (direct binding assay)
EC50 [2]: 2.46 nM

B1: EEQKLISEEDLGGGGSGGGGSGGGGSEEQKLISEEDLGGGGSGGGGSGGGGSEEQKLISEEDL (peptide)
chain: EEQKLISEEDLGGGGSGGGGSGGGGSEEQKLISEEDLGGGGSGGGGSGGGGSEEQKLISEEDL
NFAT activation by myc tag multimers [3]: Higher NFAT activation

B2: EEQKLISEEDLGGGGSGGGGSGGGGSEEQKLISEEDLGGGGSGGGGSGGGGSEEQKLISEEDLGGGGSGGGGSGGGGSEEQKLISEEDL (peptide)
chain: EEQKLISEEDLGGGGSGGGGSGGGGSEEQKLISEEDLGGGGSGGGGSGGGGSEEQKLISEEDLGGGGSGGGGSGGGGSEEQKLISEEDL
NFAT activation by myc tag multimers [3]: Higher NFAT activation
